Measured values as given in PMC7436063, “Bioactive Chemical Composition of Cannabis Extracts and Cannabinoid Receptors” (Molecules, 2020).

Assays:
CB2 = molecular target: T1, CB2 (Homo sapiens, UniProt P34972); assay: cAMP assay (HitHunter), inhibition of forskolin-stimulated cAMP in CHO-K1-CB2 cells; type: cell-based
T1 construct: gene CNR2; expressed in CHO-K1-CB2 cell line (DiscoverX), cAMP reporter platform
From the text: cAMP assay (HitHunter), inhibition of forskolin-stimulated cAMP in CHO-K1-CB2 cells on CB2

CB1 = molecular target: T2, CB1 (Homo sapiens, UniProt P21554); assay: cAMP assay (HitHunter), inhibition of forskolin-stimulated cAMP in CHO-K1-CB1 cells; type: cell-based
T2 construct: gene CNR1; expressed in CHO-K1-CB1 cell line (DiscoverX), cAMP reporter platform
T2 sequence (P21554 whole entry): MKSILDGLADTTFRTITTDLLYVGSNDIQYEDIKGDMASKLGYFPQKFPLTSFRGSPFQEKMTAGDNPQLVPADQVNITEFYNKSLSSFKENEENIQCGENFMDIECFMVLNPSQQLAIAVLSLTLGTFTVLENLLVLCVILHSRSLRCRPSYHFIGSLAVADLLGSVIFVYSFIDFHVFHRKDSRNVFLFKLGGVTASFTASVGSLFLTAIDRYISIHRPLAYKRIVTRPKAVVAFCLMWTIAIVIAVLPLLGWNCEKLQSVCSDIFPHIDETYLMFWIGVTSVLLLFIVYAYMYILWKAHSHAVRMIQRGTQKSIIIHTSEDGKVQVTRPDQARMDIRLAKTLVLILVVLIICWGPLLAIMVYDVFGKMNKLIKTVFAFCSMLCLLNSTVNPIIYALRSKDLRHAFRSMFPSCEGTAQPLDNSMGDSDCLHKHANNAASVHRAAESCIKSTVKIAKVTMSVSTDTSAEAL
From the text: cAMP assay (HitHunter), inhibition of forskolin-stimulated cAMP in CHO-K1-CB1 cells on CB1

[1] = read-out: Receptor Potency (μM) / ^b IC50 (Antagonist) / CB1

T1 sequence (P34972 whole entry): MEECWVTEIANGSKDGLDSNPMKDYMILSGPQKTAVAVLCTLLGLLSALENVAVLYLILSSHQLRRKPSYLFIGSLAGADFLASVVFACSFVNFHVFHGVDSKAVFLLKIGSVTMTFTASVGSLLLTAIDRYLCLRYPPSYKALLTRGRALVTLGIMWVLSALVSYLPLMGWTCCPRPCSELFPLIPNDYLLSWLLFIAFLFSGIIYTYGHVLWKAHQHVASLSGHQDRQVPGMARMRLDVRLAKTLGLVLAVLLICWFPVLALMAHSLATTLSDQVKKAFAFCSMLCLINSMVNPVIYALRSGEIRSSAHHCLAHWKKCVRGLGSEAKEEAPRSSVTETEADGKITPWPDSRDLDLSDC

C=C(C)[C@@H]1CCC(C)=C[C@H]1c1c(O)cc(CCCCC)c(C(=O)O)c1O [CBDA]
EC50 (CB2; read-out: Receptor Potency (μM) / ^a EC50 (Agonist) / CB2): 17 ± 4 µM
IC50 (CB2; [1]): > 10 µM
EC50 (CB1; read-out: Receptor Potency (μM) / ^a EC50 (Agonist) / CB1): 17 ± 3 µM
IC50 (CB1; [1]): > 10 µM
